Test results taken from US20040220198A1, “Methods for treating malaria by modulation of G protein function” (priority 2002, published 2004).
Entries after “also recorded” stand apart in the source; their conditions may differ. Ends that are not written are not given here.

Columns and labels:
[1] = molecular target: host Gs coupled receptors of the red cell; assay: cell-based or functional assay
P. falciparum [2] = assay: Overnight P. falciparum infection assay with C terminal G protein peptides, new ring stage infection scored by Giemsa staining; format: cell-based, Plasmodium falciparum; conditions: for effect on erythrocytic infection / new ring formation (words): 500 μM peptide in culture; for % Inhibition of Infection: 500 uM peptide, overnight, compared to mock treated cultures, standard error 10%
Description: FIG. 2. Effects of FITC-Gs peptide and its FITC-Gs-scrambled peptide on erythrocytic infection. Assays containing 500 μM of indicated peptides, their FITC-derived counterparts or solvent alone were added to a standard infection assay (see Table 1). FIG. 3. Cells taken from a standard infection assay incubated with 500 μM FITC-Gs peptide (A) or FITC-Gs scrambled peptide (B) were fixed in formaldehyde, and without permeabilization subjected to an indirect immunofluorescence assay with anti-MSP1 antibody (red, to detect extracellular parasites) and stained with DAPI (blue, to visualize nuclei). Samples were imaged by digitized fluorescence microscopy (FITC signal is green). Infection assays were set up using synchronized cultures of P. falciparum with a starting parasitemia of 6% schizonts. Cultures were incubated with 500 uM of the indicated peptides (Gs, Gs-scrambled, Gq or Gi-reversed) or mock treated (with no peptide) overnight and subsequently scored for new ring stage infection by Giemsa staining of thin blood smears. Infection is shown compared to that of mock treated cultures (containing no peptide).

P. berghei = assay: Standard 4 day Peters assay, P. berghei in mice, drug intraperitoneally; format: in vivo; conditions: for inhibition of parasitemia / P. berghei infection in vivo: mice, day 4 parasitemia
Description: (§1) FIG. 11. […] In vivo mouse experiments were done with P. berghei using a standard 4 day Peters assay (W. Peters, B. L. Robinson, Ann Trop Med Parasitol 78, 561 (1984)). P. berghei and the racemic form of propranolol were administered intraperitoneally; five mice were used per data point. In IC50 studies, 5 data points were taken. Mice were given 5×10^7 parasites on day 0, and indicated concentrations of drug twice a day on days 0-3. Tail bleeds were carried out on day 4 to ascertain parasitemia, after which the animals were sacrificed.
as §1, with “12.” for “11.”, “ICI 181,551” for “the racemic form of propranolol”
(§2) In vivo mouse experiments were done with P. berghei using a standard 4 day Peters assay (W. Peters, B. L. Robinson, Ann Trop Med Parasitol 78, 561 (1984)). P. berghei and β2-adrenergic receptor antagonists were administered intraperitoneally; five mice were used per data point. In IC50 studies, 5 data points were taken. Mice were given 5×10^7 parasites on day 0, and indicated concentrations of drug twice a day on days 0-3. Tail bleeds were carried out on day 4 to ascertain parasitemia, after which the animals were sacrificed.
as §2, with “assay.” for “assay (W. Peters, B. L. Robinson, Ann Trop Med Parasitol 78, 561 (1984)).”, “ICI 181,551” for “β2-adrenergic receptor antagonists”
as §2, with “assay.” for “assay (W. Peters, B. L. Robinson, Ann Trop Med Parasitol 78, 561 (1984)).”, “the indicated” for “β2-adrenergic receptor”, “point.” for “point. In IC50 studies, 5 data points were taken.”

[3] = test system: P. falciparum (strain 3D7); assay: In vitro erythrocytic infection assay with Gs receptor agonists/antagonists, new ring stage infection after 4-6 h; format: cell-based, Plasmodium falciparum; conditions: for blocking the stimulation of infection by P. falciparum in vitro: 10 μM isoproterenol or antagonist, 4-6 hours, FIG. 10
Description: Effects of β-adrenergic receptor agonist (isoproterenol) or antagonist (propranolol) on erythrocyte infection by P. falciparum. Cultures containing 2×10^8 red cells and 2.5×10^6 synchronized segmenters were incubated in 1 ml of 10% medium (10% human serum with RPMI) with the indicated agonist, antagonist, agonist+antagonist, or mock treated (solvent alone: 1 μl) for 6 h.
Effects of adenosine receptor agonist (NECA) and antagonist (8-SPT) on infection of erythrocytes by P. falciparum. Cultures were set up as described in FIG. 5, indicated concentrations of NECA, 8-SPT, both or solvent alone were added and infection was scored after 6 h as described.
Effects of (β-adrenergic and adenosine receptor) agonists and antagonists singly and in combination on in vitro erythrocytic infection by P. falciparum. In vitro infection assays were done with synchronized cultures of P. falciparum (strain 3D7) using standard culture conditions (K. Haldar, M. A. J. Ferguson, G. A. M. Cross, J Biol Chem 260, 4969 (1985)). A starting parasitemia of 2.5% schizonts (44-48 h in development) in 20 μl of red blood cells with 1 ml of 10% human serum in RPMI1640 was used. The cultures were incubated for 4-6 hours in the presence of Gαs protein receptor agonist or antagonist, or vehicle control. All detectable schizonts ruptured, and new ring stage infection was scored by Giemsa staining of thin blood smears.
In vitro effect of various β-adrenergic antagonists on inhibition of P. falciparum infection in red blood cells treated with isoproterenol. In vitro infection assays were done with synchronized cultures of P. falciparum (strain 3D7) using standard culture conditions (K. Haldar, M. A. J. Ferguson, G. A. M. Cross, J Biol Chem 260, 4969 (1985)). A starting parasitemia of 2.5% schizonts (44-48 h in development) in 20 μl of red blood cells with 1 ml of 10% human serum in RPMI1640 was used. The cultures were incubated for 4-6 hours in the presence of 10 μM beta-adrenergic receptor agonists or antagonists, or vehicle control. All detectable schizonts ruptured, and new ring stage infection was scored by Giemsa staining of thin blood smears.
In vitro infection assays were done with synchronized cultures of P. falciparum (strain 3D7) using standard culture conditions. A starting parasitemia of 2.5% schizonts (44-48 h in development) in 20 μl of red blood cells with 1 ml of 10% human serum in RPMI1640 was used. The cultures were incubated for 4-6 hours in the presence of 10 μM isoproterenol or antagonist, or vehicle control. All detectable schizonts ruptured, and new ring stage infection was scored by Giemsa staining of thin blood smears.

P. falciparum [4] = assay: Preincubation (4 h) of red cells or schizonts with Gs peptide, wash, then overnight infection assay; format: cell-based, Plasmodium falciparum; conditions: 500 μM, 4 h preincubation of red cells or late stage segmenters/schizonts, FIG. 1; listed as Gs peptide
Description: FIG. 1. Effects of preincubating (for 4 h) red cells or schizonts with Gs peptide on malarial infection. Uninfected red cells or schizonts were resuspended at 2×10^8 cells/ml in RPMI1640 and incubated with 500 μM Gs peptide or mock treated for 4 h at 37° C. The cells were subsequently recovered by centrifugation and washing in peptide-free medium. Washed cells were then subjected to an overnight infection assay (using 4% schizonts to infect the culture) in the absence of peptides.

P. falciparum [5] = assay: Dose dependent effect of Gs peptide on ring-infected P. falciparum cultures (development to trophozoites and next generation rings); format: cell-based, Plasmodium falciparum; conditions: for effect on parasite growth in culture / new ring formation: extracellular 100-500 μM, Tables I and II
Description: Table II illustrates the dose dependent effect of Gs peptide on inhibition of P. falciparum infection. In this study, ring-infected cultures at 1% parasitemia were incubated with the indicated concentrations of Gs peptides under standard culture conditions and monitored for development to the subsequent trophozoite stage as well as the next generation of ring stage parasites. Parasitemias were detected by Giemsa staining of thin blood smears. Standard error: 10%.

**Q.** How did the % Inhibition of Infection (P. falciparum erythrocytic infection, 500 uM peptide, overnight) [1] turn out when “Gαs peptide (C terminal peptide of the heterotrimeric G protein Gs)” was run?
**A.** 87%

**Q.** What about the Day 3 % Ring (new ring stage parasitemia) at 5 µM Gs peptide; 5.2 at 0 µM [1] of the same compound?
**A.** 3.8%

**Q.** What about the Day 3 % Ring (new ring stage parasitemia) at 20 µM Gs peptide; 5.2 at 0 µM [1] of the same compound?
**A.** 2.7%

**Q.** What about the Day 3 % Ring (new ring stage parasitemia) at 50 µM Gs peptide; 5.2 at 0 µM [1] of the same compound?
**A.** 1.9%

**Q.** And the Day 3 % Ring (new ring stage parasitemia) at 100 µM Gs peptide; 5.2 at 0 µM [1]?
**A.** 1.4%

**Q.** What about the Day 3 % Ring (new ring stage parasitemia) at 200 µM Gs peptide; 5.2 at 0 µM [1] of the same compound?
**A.** 0.6%

**Q.** What about the Day 3 % Ring (new ring stage parasitemia) at 500 µM Gs peptide; 5.2 at 0 µM [1] of the same compound?
**A.** 0.4%

**Q.** Which results are given for “NGIKCLFNDKL (SEQ ID NO:4) (synthetic reverse C terminal peptide of Gri) [Gi-reverse, reverse of C terminal peptide of Gi]”?
**A.** effect on erythrocytic infection / new ring formation (words) (P. falciparum [2]; listed as Gi): no significant effect on infection; effect on erythrocytic infection / new ring formation (words) (P. falciparum [2]; listed as Gri): little effect on plasmodial growth; % Inhibition of Infection (P. falciparum [2]): 6%

**Q.** CC(C)NC[C@@H](O)COc1cccc2ccccc12 (single isomer, unassigned) [inactive isomer of propranolol] was tested. Which “inhibition of parasitemia / P. berghei infection in vivo” value (P. berghei) did it give?
**A.** no effect

**Q.** What about the “P. falciparum growth in culture” value [3] of the same compound?
**A.** no effect

**Q.** Which “effect of preincubation with peptide on infection” value (P. falciparum [4]) does the source give for “QRMHLRQYELL (SEQ ID NO:1) (also: acetylated) [Gs]” here?
**A.** no detrimental effect on infection; also recorded: failed to block infection

**Q.** What about the “% Ring” value (P. falciparum [5]; Day 1, 5 μM Gs Peptide) of the same compound?
**A.** 1.0%

**Q.** And the “% Ring” value (P. falciparum [5]; Day 1, 20 μM Gs Peptide)?
**A.** 1.0%

**Q.** And the “% Ring” value (P. falciparum [5]; Day 1, 50 μM Gs Peptide)?
**A.** 1.0%

**Q.** What about the “% Ring” value (P. falciparum [5]; Day 1, 100 μM Gs Peptide) of the same compound?
**A.** 1.0%

**Q.** What about the “% Ring” value (P. falciparum [5]; Day 1, 200 μM Gs Peptide) of the same compound?
**A.** 1.0%

**Q.** What about the “% Ring” value (P. falciparum [5]; Day 1, 500 μM Gs Peptide) of the same compound?
**A.** 1.0%

**Q.** And the “% Troph” value (P. falciparum [5]; Day 2, 5 μM Gs Peptide)?
**A.** 0.9%

**Q.** And the “% Troph” value (P. falciparum [5]; Day 2, 20 μM Gs Peptide)?
**A.** 1.0%

**Q.** What about the “% Troph” value (P. falciparum [5]; Day 2, 50 μM Gs Peptide) of the same compound?
**A.** 0.9%

**Q.** And the “% Troph” value (P. falciparum [5]; Day 2, 100 μM Gs Peptide)?
**A.** 0.8%

**Q.** What about the “% Troph” value (P. falciparum [5]; Day 2, 200 μM Gs Peptide) of the same compound?
**A.** 1.0%

**Q.** What about the “% Troph” value (P. falciparum [5]; Day 2, 500 μM Gs Peptide) of the same compound?
**A.** 0.9%

**Q.** And the “% Ring” value (P. falciparum [5]; Day 3, 5 μM Gs Peptide)?
**A.** 3.8%

**Q.** And the “% Troph” value (P. falciparum [5]; Day 3, 5 μM Gs Peptide)?
**A.** 0.6%

**Q.** And the “% Ring” value (P. falciparum [5]; Day 3, 20 μM Gs Peptide)?
**A.** 2.7%

**Q.** What about the “% Troph” value (P. falciparum [5]; Day 3, 20 μM Gs Peptide) of the same compound?
**A.** 0.6%

**Q.** And the “% Ring” value (P. falciparum [5]; Day 3, 50 μM Gs Peptide)?
**A.** 1.9%

**Q.** What about the “% Troph” value (P. falciparum [5]; Day 3, 50 μM Gs Peptide) of the same compound?
**A.** 0.3%

**Q.** What about the “% Ring” value (P. falciparum [5]; Day 3, 100 μM Gs Peptide) of the same compound?
**A.** 1.4%

**Q.** And the “% Troph” value (P. falciparum [5]; Day 3, 100 μM Gs Peptide)?
**A.** 0.6%

**Q.** What about the “% Ring” value (P. falciparum [5]; Day 3, 200 μM Gs Peptide) of the same compound?
**A.** 0.6%

**Q.** What about the “% Troph” value (P. falciparum [5]; Day 3, 200 μM Gs Peptide) of the same compound?
**A.** 0.5%

**Q.** And the “% Ring” value (P. falciparum [5]; Day 3, 500 μM Gs Peptide)?
**A.** 0.4%

**Q.** What about the “% Troph” value (P. falciparum [5]; Day 3, 500 μM Gs Peptide) of the same compound?
**A.** 0.5%

**Q.** What about the “effect on parasite growth in culture / new ring formation” value (P. falciparum [5]; listed as Gs peptide) of the same compound?
**A.** marked effect on new ring formation

**Q.** What about the “effect on parasite growth in culture / new ring formation” value (P. falciparum [5]; listed as Gαs peptide) of the same compound?
**A.** inhibit parasite growth in culture, in a dose dependent manner

**Q.** And the “extracellular concentrations required for significant inhibition” value (P. falciparum [5]; new ring formation)?
**A.** > 50 µM

**Q.** What about the “effect on erythrocytic infection / new ring formation (words)” value (P. falciparum [2]) of the same compound?
**A.** marked inhibition of new rings; also recorded: significantly reduced erythrocytic infection

**Q.** What about the “% Inhibition of Infection” value (P. falciparum [2]) of the same compound?
**A.** 87%

**Q.** Which results are given for CC(C)NCC(O)COc1cccc2ccccc12 (racemic) [racemic propranolol]?
**A.** IC90 (P. berghei; P. berghei infections in mice, twice a day days 0-3, FIG. 11): 85 mg/kg/day; inhibition of parasitemia / P. berghei infection in vivo (P. berghei): block P. berghei infections in mice; blocking the stimulation of infection by P. falciparum in vitro [3]: inhibit agonist-stimulated infection of P. falciparum in vitro

**Q.** Which “effect on erythrocytic infection / new ring formation (words)” value (P. falciparum [2]) does the source give for “LQLNLKEYNLV (SEQ ID NO: 3) (synthetic C terminal peptide of Gq)” here?
**A.** little effect on plasmodial growth; also recorded: no significant effect on infection

**Q.** And the “% Inhibition of Infection” value (P. falciparum [2])?
**A.** 20%

**Q.** How did the “blocking the stimulation of infection by P. falciparum in vitro” value [3] turn out when CC(C)NCC(O)COc1ccc(CC(N)=O)cc1 (centres unmarked) [altenolol, 4-[2-Hydroxy-3-[(1-methylethyl)amino]-propoxy]benzeneacetamide] was run?
**A.** almost as effective as propranolol at blocking the stimulation of infection

**Q.** With COc1ccc(OC)c(C(O)C(C)NC(C)(C)C)c1 (centres unmarked) [butoxamine] as the compound, how does the “blocking the stimulation of infection by P. falciparum in vitro” value [3] read?
**A.** lower inhibitory effect

**Q.** For Cc1ccc(OCC(O)C(C)NC(C)C)c2c1CCC2 (centres unmarked) [ICI 181,551], which “inhibition of parasitemia / P. berghei infection in vivo” value (P. berghei) is on record?
**A.** effective at inhibiting parasitemia in vivo

**Q.** With “ELRLQHYMQLR (SEQ ID NO:2) (synthetic scrambled G s peptide Gscb1) [Gs-scrambled]” as the compound, how does the “effect on erythrocytic infection / new ring formation (words)” value (P. falciparum [2]) read?
**A.** does not block infection

**Q.** What about the “effect on erythrocytic infection / new ring formation (words)” value (P. falciparum [2]; listed as Gscb1) of the same compound?
**A.** virtually no effect

**Q.** What about the “% Inhibition of Infection” value (P. falciparum [2]) of the same compound?
**A.** 4%
